Source: ChEMBL document CHEMBL2150993, “Substituted thiazoles VII. Synthesis and antitumor activity of certain 2-(substituted amino)-4-phenyl-1,3-thiazole analogs” (2012)

Key:
Assay type in all cases: functional
Conditions in all cases: at 10 µM
[1] = tested on: CCRF-CEM; test: Growth inhibition of human CCRF-CEM cells after 48 hrs by cell counting analysis
[2] = tested on: HL-60; test: Growth inhibition of human HL60 cells after 48 hrs by cell counting analysis
[3] = tested on: K562; test: Growth inhibition of human K562 cells after 48 hrs by cell counting analysis
[4] = tested on: RPMI-8226; test: Growth inhibition of human RPMI8226 cells after 48 hrs by cell counting analysis
[5] = tested on: SR; test: Growth inhibition of human SR cells after 48 hrs by cell counting analysis
[6] = tested on: A549; test: Growth inhibition of human A549 cells after 48 hrs by cell counting analysis
[7] = tested on: EKVX; test: Growth inhibition of human EKVX cells after 48 hrs by cell counting analysis
[8] = tested on: HOP-62; test: Growth inhibition of human HOP62 cells after 48 hrs by cell counting analysis
[9] = tested on: HOP-92; test: Growth inhibition of human HOP92 cells after 48 hrs by cell counting analysis
[10] = tested on: NCI-H226; test: Growth inhibition of human NCI-H226 cells after 48 hrs by cell counting analysis
[11] = tested on: NCI-H23; test: Growth inhibition of human NCI-H23 cells after 48 hrs by cell counting analysis
[12] = Growth inhibition of human NCI-322M cells after 48 hrs by cell counting analysis
[13] = tested on: NCI-H522; test: Growth inhibition of human NCI-H522 cells after 48 hrs by cell counting analysis
[14] = tested on: HCC 2998; test: Growth inhibition of human HCC2998 cells after 48 hrs by cell counting analysis
[15] = tested on: HCT-15; test: Growth inhibition of human HCT15 cells after 48 hrs by cell counting analysis
[16] = tested on: HT-29; test: Growth inhibition of human HT-29 cells after 48 hrs by cell counting analysis
[17] = tested on: KM12; test: Growth inhibition of human KM12 cells after 48 hrs by cell counting analysis
[18] = tested on: SW-620; test: Growth inhibition of human SW620 cells after 48 hrs by cell counting analysis
[19] = tested on: SF-268; test: Growth inhibition of human SF268 cells after 48 hrs by cell counting analysis
[20] = tested on: SF-295; test: Growth inhibition of human SF295 cells after 48 hrs by cell counting analysis
[21] = tested on: SF-539; test: Growth inhibition of human SF539 cells after 48 hrs by cell counting analysis
[22] = tested on: SNB-19; test: Growth inhibition of human SNB19 cells after 48 hrs by cell counting analysis
[23] = tested on: SNB-75; test: Growth inhibition of human SNB75 cells after 48 hrs by cell counting analysis
[24] = tested on: U-251; test: Growth inhibition of human U251 cells after 48 hrs by cell counting analysis
[25] = tested on: LOX IMVI; test: Growth inhibition of human LOXIMVI cells after 48 hrs by cell counting analysis
[26] = tested on: Malme-3M; test: Growth inhibition of human MALME-3M cells after 48 hrs by cell counting analysis
[27] = tested on: M14; test: Growth inhibition of human M14 cells after 48 hrs by cell counting analysis
[28] = tested on: MDA-MB-435; test: Growth inhibition of human MDA-MB-435 cells after 48 hrs by cell counting analysis
[29] = tested on: SK-MEL-2; test: Growth inhibition of human SK-MEL-2 cells after 48 hrs by cell counting analysis
[30] = tested on: SK-MEL-28; test: Growth inhibition of human SK-MEL-28 cells after 48 hrs by cell counting analysis
[31] = tested on: SK-MEL-5; test: Growth inhibition of human SK-MEL-5 cells after 48 hrs by cell counting analysis
[32] = tested on: UACC-257; test: Growth inhibition of human UACC257 cells after 48 hrs by cell counting analysis
[33] = tested on: UACC-62; test: Growth inhibition of human UACC62 cells after 48 hrs by cell counting analysis
[34] = tested on: IGROV-1; test: Growth inhibition of human IGROV1 cells after 48 hrs by cell counting analysis
[35] = tested on: OVCAR-3; test: Growth inhibition of human OVCAR3 cells after 48 hrs by cell counting analysis
[36] = tested on: OVCAR-4; test: Growth inhibition of human OVCAR4 cells after 48 hrs by cell counting analysis
[37] = tested on: OVCAR-5; test: Growth inhibition of human OVCAR5 cells after 48 hrs by cell counting analysis
[38] = tested on: OVCAR-8; test: Growth inhibition of human OVCAR8 cells after 48 hrs by cell counting analysis
[39] = Growth inhibition of human NCI-ADR-RES cells after 48 hrs by cell counting analysis
[40] = tested on: SK-OV-3; test: Growth inhibition of human SKOV3 cells after 48 hrs by cell counting analysis
[41] = tested on: ACHN; test: Growth inhibition of human ACHN cells after 48 hrs by cell counting analysis
[42] = tested on: CAKI-1; test: Growth inhibition of human Caki1 cells after 48 hrs by cell counting analysis
[43] = tested on: RXF 393; test: Growth inhibition of human RXF393 cells after 48 hrs by cell counting analysis
[44] = tested on: SN12C; test: Growth inhibition of human SN12C cells after 48 hrs by cell counting analysis
[45] = tested on: TK-10; test: Growth inhibition of human TK10 cells after 48 hrs by cell counting analysis
[46] = tested on: UO-31; test: Growth inhibition of human UO31 cells after 48 hrs by cell counting analysis
[47] = tested on: PC-3; test: Growth inhibition of human PC3 cells after 48 hrs by cell counting analysis
[48] = tested on: MCF7; test: Growth inhibition of human MCF7 cells after 48 hrs by cell counting analysis
[49] = tested on: MDA-MB-231; test: Growth inhibition of human MDA-MB-231 cells after 48 hrs by cell counting analysis
[50] = tested on: BT-549; test: Growth inhibition of human BT549 cells after 48 hrs by cell counting analysis
[51] = tested on: T47D; test: Growth inhibition of human T47D cells after 48 hrs by cell counting analysis
[52] = tested on: MDA-MB-468; test: Growth inhibition of human MDA-MB-468 cells after 48 hrs by cell counting analysis
[53] = tested on: MOLT-4; test: Growth inhibition of human MOLT4 cells after 48 hrs by cell counting analysis
[54] = tested on: HCT-116; test: Growth inhibition of human HCT116 cells after 48 hrs by cell counting analysis

## CN1CCN(CCC(=O)Nc2nc(-c3ccc(Br)cc3)cs2)CC1
[1]
  growth inhibition (GI): 24.9%
[2]
  growth inhibition (GI): 37.7%
[3]
  growth inhibition (GI): 52.4%
[4]
  growth inhibition (GI): 30.5%
[5]
  growth inhibition (GI): <10%
[6]
  growth inhibition (GI): 22.2%
[7]
  growth inhibition (GI): 10.8%
[8]
  growth inhibition (GI): 25%
[9]
  growth inhibition (GI): 42.7%
[10]
  growth inhibition (GI): 19.1%
[11]
  growth inhibition (GI): 26%
[12]
  growth inhibition (GI): 17.2%
[13]
  growth inhibition (GI): 28.5%
[14]
  growth inhibition (GI): <10%
[15]
  growth inhibition (GI): 42.6%
[16]
  growth inhibition (GI): 80.4%
[17]
  growth inhibition (GI): <10%
[18]
  growth inhibition (GI): <10%
[19]
  growth inhibition (GI): 12.8%
[20]
  growth inhibition (GI): 14.4%
[21]
  growth inhibition (GI): 31.4%
[22]
  growth inhibition (GI): 20.9%
[23]
  growth inhibition (GI): 47.9%
[24]
  growth inhibition (GI): 33.6%
[25]
  growth inhibition (GI): 31.8%
[26]
  growth inhibition (GI): 24.6%
[27]
  growth inhibition (GI): 33.7%
[28]
  growth inhibition (GI): 50.6%
[29]
  growth inhibition (GI): <10%
[30]
  growth inhibition (GI): 23.4%
[31]
  growth inhibition (GI): 76.2%
[32]
  growth inhibition (GI): 36.4%
[33]
  growth inhibition (GI): 71.6%
[34]
  growth inhibition (GI): 20.4%
[35]
  growth inhibition (GI): <10%
[36]
  growth inhibition (GI): <10%
[37]
  growth inhibition (GI): 15.6%
[38]
  growth inhibition (GI): <10%
[39]
  growth inhibition (GI): 22.9%
[40]
  growth inhibition (GI): <10%
[41]
  growth inhibition (GI): 15.9%
[42]
  growth inhibition (GI): 30.2%
[43]
  growth inhibition (GI): 38.1%
[44]
  growth inhibition (GI): 31.9%
[45]
  growth inhibition (GI): 22.5%
[46]
  growth inhibition (GI): 50.8%
[47]
  growth inhibition (GI): 24.6%
[48]
  growth inhibition (GI): 28.8%
[49]
  growth inhibition (GI): 64.3%
[50]
  growth inhibition (GI): 32.5%
[51]
  growth inhibition (GI): 34.9%
[52]
  growth inhibition (GI): 48.7%
[53]
  growth inhibition (GI): 38.1%
[54]
  growth inhibition (GI): 42.5%

## Cn1cc(NC(=O)c2cc(NC(=O)CNC(=N)N)cn2C)cc1C(=O)NCCC(=N)N [NETROPSIN]
[1]
  growth inhibition (GI): 15.3%
[2]
  growth inhibition (GI): 12.6%
[3]
  growth inhibition (GI): 25.1%
[4]
  growth inhibition (GI): 28.9%
[5]
  growth inhibition (GI): <10%
[6]
  growth inhibition (GI): 10.3%
[7]
  growth inhibition (GI): 19.5%
[8]
  growth inhibition (GI): 10.9%
[9]
  growth inhibition (GI): <10%
[10]
  growth inhibition (GI): 14.5%
[11]
  growth inhibition (GI): 13.9%
[12]
  growth inhibition (GI): 11.1%
[13]
  growth inhibition (GI): 28.2%
[14]
  growth inhibition (GI): <10%
[15]
  growth inhibition (GI): <10%
[16]
  growth inhibition (GI): 10.8%
[17]
  growth inhibition (GI): <10%
[18]
  growth inhibition (GI): <10%
[19]
  growth inhibition (GI): <10%
[20]
  growth inhibition (GI): 14.4%
[21]
  growth inhibition (GI): <10%
[22]
  growth inhibition (GI): 10.5%
[23]
  growth inhibition (GI): 29.8%
[24]
  growth inhibition (GI): <10%
[25]
  growth inhibition (GI): <10%
[26]
  growth inhibition (GI): 12.4%
[27]
  growth inhibition (GI): <10%
[28]
  growth inhibition (GI): <10%
[29]
  growth inhibition (GI): <10%
[30]
  growth inhibition (GI): <10%
[31]
  growth inhibition (GI): 23.7%
[32]
  growth inhibition (GI): <10%
[33]
  growth inhibition (GI): 29%
[34]
  growth inhibition (GI): 17.4%
[35]
  growth inhibition (GI): <10%
[36]
  growth inhibition (GI): <10%
[37]
  growth inhibition (GI): <10%
[38]
  growth inhibition (GI): <10%
[39]
  growth inhibition (GI): 17%
[40]
  growth inhibition (GI): <10%
[41]
  growth inhibition (GI): <10%
[42]
  growth inhibition (GI): 28.9%
[43]
  growth inhibition (GI): <10%
[44]
  growth inhibition (GI): <10%
[45]
  growth inhibition (GI): <10%
[46]
  growth inhibition (GI): 30.6%
[47]
  growth inhibition (GI): 17.8%
[48]
  growth inhibition (GI): 13.7%
[49]
  growth inhibition (GI): 23.4%
[50]
  growth inhibition (GI): 12.9%
[51]
  growth inhibition (GI): 25.2%
[52]
  growth inhibition (GI): 25.7%
[53]
  growth inhibition (GI): 33.2%
[54]
  growth inhibition (GI): 10.7%
